Experimental data as given in US10696692B2, “Amido-benzyl sulfone and sulfoxide derivates” (Forma TM, LLC, priority 2012, dated 2020).

What was measured:
NAMPT = NAMPT (Homo sapiens (Human), UniProt P43490); test: Assay 1: Biochemical Inhibition Assay (NAMPT enzymatic reaction, NMN quantified by mass spectrometry); conditions: read-out: Biochemical (IC50);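 also: recombinant His-tagged human NAMPT preincubated with compound 15 min, then reacted 30 min at rt with 1 µM NAM, 100 µM PRPP, 2.5 mM ATP, NMN product read by RapidFire MS, normalized to L-Cystathionine internal standard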
NAMPT, sequence (P43490 whole entry): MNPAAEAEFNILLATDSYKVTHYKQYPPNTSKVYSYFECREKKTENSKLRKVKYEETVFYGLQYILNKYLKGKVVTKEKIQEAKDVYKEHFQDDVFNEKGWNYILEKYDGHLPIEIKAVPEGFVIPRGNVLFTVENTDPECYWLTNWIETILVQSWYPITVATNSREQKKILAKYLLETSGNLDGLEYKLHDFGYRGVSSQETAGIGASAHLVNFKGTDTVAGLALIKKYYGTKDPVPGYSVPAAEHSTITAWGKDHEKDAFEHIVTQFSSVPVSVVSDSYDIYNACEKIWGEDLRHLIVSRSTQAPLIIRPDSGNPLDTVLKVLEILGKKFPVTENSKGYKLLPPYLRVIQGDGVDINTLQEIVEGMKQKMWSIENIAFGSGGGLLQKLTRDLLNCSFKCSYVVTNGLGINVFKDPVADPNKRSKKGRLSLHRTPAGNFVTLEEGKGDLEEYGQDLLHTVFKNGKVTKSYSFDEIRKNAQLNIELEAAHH

A2780 cells = test: Assay 2: In-Vitro Cell Proliferation Assay (A2780 cells, SRB readout, 72 hours); format: cell-based; conditions: Homo sapiens, A2780, 72 h, A2780 cells, 72 hours, SRB; read-out: Cell Proliferation (IC50);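 also: viable cells counted via sulforhodamine B staining, absorbance at 570 nm, after 72 h exposure at 37 °C, DMSO 0.1% as control, media-only background subtracted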

Compound	IC50 (NAMPT) [nM]	IC50 (A2780 cells) [nM]
O=C(NCc1ccc(S(=O)(=O)C2CCN(C3COC3)CC2)cc1)c1cnc2nccn2c1 [Example 118, Imidazo[1,2-a]pyrimidine-6-carboxylic acid 4-(1-oxetan-3-yl-piperidine-4-sulfonyl)-benzylamide]	4.1	121
O=C(NCc1ccc(S(=O)(=O)N2CCN(C3COC3)CC2)cc1)c1cnc2nccn2c1 [Example 119, Imidazo[1,2-a]pyrimidine-6-carboxylic acid 4-(4-oxetan-3-yl-piperazine-1-sulfonyl)-benzylamide]	4.4	352
O=C(NCc1ccc(S(=O)(=O)C2CCN(C3COC3)CC2)cc1)c1cc2ccncc2s1 [Example 120, Thieno[2,3-c]pyridine-2-carboxylic acid 4-(1-oxetan-3-yl-piperidine-4-sulfonyl)-benzylamide]	4.3	1.5
CC(C)(C)OC(=O)N1CCC2(CC1)CCN(S(=O)(=O)c1ccc(CNC(=O)c3ccc4nccn4c3)cc1)CC2 [Example 121, 9-(4-{[(Imidazo[1,2-a]pyridine-6-carbonyl)-amino]-methyl}-benzenesulfonyl)-3,9-diaza-spiro[5.5]undecane-3-carboxylic acid tert-butyl ester]	5.8	1.1
CC(C)(C)OC(=O)N1CCCC2(CCN(S(=O)(=O)c3ccc(CNC(=O)c4ccc5nccn5c4)cc3)CC2)C1 [Example 122, 9-(4-{[(Imidazo[1,2-a]pyridine-6-carbonyl)-amino]-methyl}-benzenesulfonyl)-2,9-diaza-spiro[5.5]undecane-2-carboxylic acid tert-butyl ester]	25.5	2.6
CC(C)(C)OC(=O)N1CCC2(CC1)CN(S(=O)(=O)c1ccc(CNC(=O)c3ccc4nccn4c3)cc1)CCO2 [Example 124, 4-(4-{[(Imidazo[1,2-a]pyridine-6-carbonyl)-amino]-methyl}-benzenesulfonyl)-1-oxa-4,9-diaza-spiro[5.5]undecane-9-carboxylic acid tert-butyl ester]	40.5	4.65
CC(C)(C)OC(=O)N1CCCC12CCN(S(=O)(=O)c1ccc(CNC(=O)c3ccc4nccn4c3)cc1)CC2 [Example 125, 8-(4-{[(Imidazo[1,2-a]pyridine-6-carbonyl)-amino]-methyl}-benzenesulfonyl)-1,8-diaza-spiro[4.5]decane-1-carboxylic acid tert-butyl ester]	11.2	1.37
CC(C)(C)OC(=O)NC1CC2(CCN(S(=O)(=O)c3ccc(CNC(=O)c4ccc5nccn5c4)cc3)CC2)C1 [Example 127]	14.5	2.77
CC(C)(C)OC(=O)NCC12CC(CN1S(=O)(=O)c1ccc(CNC(=O)c3ccc4nccn4c3)cc1)C2 [Example 129, [2-(4-{[(Imidazo[1,2-a]pyridine-6-carbonyl)-amino]-methyl}-benzenesulfonyl)-2-aza-bicyclo[2.1.1]hex-1-ylmethyl]-carbamic acid tert-butyl ester]	34	8.75
CC(C)(C)OC(=O)N1CCC2(CCCN(S(=O)(=O)c3ccc(CNC(=O)c4ccc5nccn5c4)cc3)C2)CC1 [Example 131, 2-(4-{[(Imidazo[1,2-a]pyridine-6-carbonyl)-amino]-methyl}-benzenesulfonyl)-2,9-diaza-spiro[5.5]undecane-9-carboxylic acid tert-butyl ester]	40.4	5.8
O=C(NCc1ccc(S(=O)(=O)N2CC3COCC(C2)C3O)cc1)c1ccc2nccn2c1 (stereo not shown) [Example 138, Imidazo[1,2-a]pyridine-6-carboxylic acid 4-(9-hydroxy-3-oxa-7-aza-bicyclo[3.3.1]nonane-7-sulfonyl)-benzylamide]	28.8	24.9
CC1(O)CCN(S(=O)(=O)c2ccc(CNC(=O)c3ccc4nccn4c3)cc2)CC1 [Example 145, Imidazo[1,2-a]pyridine-6-carboxylic acid 4-(4-hydroxy-4-methyl-piperidine-1-sulfonyl)-benzylamide]	28.4	12.5
O=C(NCc1ccc(S(=O)(=O)N2CCC3OCCC3C2)cc1)c1ccc2nccn2c1 (stereo not shown) [Example 146, Imidazo[1,2-a]pyridine-6-carboxylic acid 4-(hexahydro-furo[3,2-c]pyridine-5-sulfonyl)-benzylamide]	12.7	3.1
O=C(NCc1ccc(S(=O)(=O)N2CCC[C@H](O)C2)cc1)c1cc2ccncc2o1 [Example 150, Furo[2,3-c]pyridine-2-carboxylic acid 4-((S)-3-hydroxy-piperidine-1-sulfonyl)-benzylamide]	31.5	45.8
O=C(NCc1ccc(S(=O)(=O)N2CCC[C@@H](O)C2)cc1)c1cc2ccncc2o1 [Example 151, Furo[2,3-c]pyridine-2-carboxylic acid 4-((R)-3-hydroxy-piperidine-1-sulfonyl)-benzylamide]	27.4	45
O=C(NCc1ccc(S(=O)(=O)N2CCC3(CCNC3)CC2)cc1)c1ccc2nccn2c1 [Example 152, Imidazo[1,2-a]pyridine-6-carboxylic acid 4-(2,8-diaza-spiro[4.5]decane-8-sulfonyl)-benzylamide]	32.1	30.5

Compound	IC50 (NAMPT) [nM]	IC50 (A2780 cells) [nM]
O=C(NCc1ccc(S(=O)(=O)N2CC3COCC3C2)cc1)c1cc2ccncc2o1 (stereo not shown) [Example 153, Furo[2,3-c]pyridine-2-carboxylic acid 4-(tetrahydro-furo[3,4-c]pyrrole-5-sulfonyl)-benzylamide]	16.5	48.9
O=C(NCc1ccc(S(=O)(=O)N2CCC(N3CCCC3)CC2)cc1)c1cc2ccncc2o1 [Example 157, Furo[2,3-c]pyridine-2-carboxylic acid 4-(4-pyrrolidin-1-yl-piperidine-1-sulfonyl)-benzylamide]	17.9	14.9
O=C(NCc1ccc(S(=O)(=O)N2C[C@H]3C[C@@H]2C3)cc1)c1ccc2nccn2c1 [Example 159, Imidazo[1,2-a]pyridine-6-carboxylic acid 4-(2-aza-bicyclo[2.1.1]hexane-2-sulfonyl)-benzylamide]	12	13.3
O=C(NCc1ccc(S(=O)(=O)N2CC3CC3C2)cc1)c1ccc2nccn2c1 (stereo not shown) [Example 160, Imidazo[1,2-a]pyridine-6-carboxylic acid 4-(3-aza-bicyclo[3.1.0]hexane-3-sulfonyl)-benzylamide]	4.7	15.3
O=C(NCc1ccc(S(=O)(=O)N2CCN(C3CCOCC3)CC2)cc1)c1cc2ccncc2o1 [Example 170, Furo[2,3-c]pyridine-2-carboxylic acid 4-[4-(tetrahydro-pyran-4-yl)-piperazine-1-sulfonyl]-benzylamide]	30.4	11.9
CC(=O)N1CCC(S(=O)(=O)c2ccc(CNC(=O)c3ccc4nccn4c3)cc2)CC1 [Example 171, Imidazo[1,2-a]pyridine-6-carboxylic acid 4-(1-acetyl-piperidine-4-sulfonyl)-benzylamide]	39.8	42.2
COCCN1CCN(S(=O)(=O)c2ccc(CNC(=O)c3cnc4[nH]ncc4c3)cc2)CC1 [Example 173, 1H-Pyrazolo[3,4-b]pyridine-5-carboxylic acid 4-[4-(2-methoxy-ethyl)-piperazine-1-sulfonyl]-benzylamide]	183	86.2
O=C(NCc1ccc(S(=O)(=O)N2CCC(F)(F)C2)cc1)c1cnc2[nH]ncc2c1 [Example 175, 1H-Pyrazolo[3,4-b]pyridine-5-carboxylic acid 4-(3,3-difluoro-pyrrolidine-1-sulfonyl)-benzylamide]	65.2	127
CC(C)(C)OC(=O)N1CCC2(CCCN2S(=O)(=O)c2ccc(CNC(=O)c3ccc4nccn4c3)cc2)CC1 [Example 185, 1-(4-{[(Imidazo[1,2-a]pyridine-6-carbonyl)-amino]-methyl}-benzenesulfonyl)-1,8-diaza-spiro[4.5]decane-8-carboxylic acid tert-butyl ester]	283	118
CC(C)CN1CCC([S+]([O-])c2ccc(CNC(=O)c3cnc4nccn4c3)cc2)CC1 (stereo not shown) [Example 188, N-[[4-[(1-isobutyl-4-piperidyl)sulfinyl]phenyl]methyl]imidazo[1,2-a]pyrimidine-6-carboxamide]	7.7	31.1
CC(C)CN1CCC([S+]([O-])c2ccc(CNC(=O)c3cnc4[nH]ncc4c3)cc2)CC1 (stereo not shown) [Example 190, N-[[4-[(1-isobutyl-4-piperidyl)sulfinyl]phenyl]methyl]-1H-pyrazolo[3,4-b]pyridine-5-carboxamide]	130	23
CC(C)CN1CCC([S+]([O-])c2ccc(CNC(=O)c3cc4cnccc4[nH]3)cc2)CC1 (stereo not shown) [Example 191, N-[[4-[(1-isobutyl-4-piperidyl)sulfinyl]phenyl]methyl]-1H-pyrrolo[3,2-c]pyridine-2-carboxamide]	26.3	5.6
CN1CCC2(C1)CN(S(=O)(=O)c1ccc(CNC(=O)c3cc4ccncc4o3)cc1)C2 [Example 197, N-[[4-[(6-methyl-2,6-diazaspiro[3.4]octan-2-yl)sulfonyl]phenyl]methyl] furo[2,3-c]pyridine-2-carboxamide]	2.83	16.8
O=C(NCc1ccc(S(=O)(=O)C2CCOCC2)cc1)c1cnc2[nH]ncc2c1 [Example 198, N-[(4-tetrahydropyran-4-ylsulfonylphenyl)methyl]-1H-pyrazolo[3,4-b]pyridine-5-carboxamide]	308	452
O=C(NCc1ccc(S(=O)(=O)C2CCOCC2)cc1)c1cnc2nccn2c1 [Example 199, N-[(4-tetrahydropyran-4-ylsulfonylphenyl)methyl] imidazo[1,2-a]pyrimidine-6-carboxamide]	8.65	185
O=C(NCc1ccc(S(=O)(=O)C2CCOCC2)cc1)c1ccc2nccn2c1 [Example 200, N-[(4-tetrahydropyran-4-ylsulfonylphenyl)methyl] imidazo[1,2-a]pyridine-6-carboxamide]	34.5	14.2
